In patent publication US20220257491A1, “Prebiotic Oral Care Compositions and Methods” (Colgate-Palmolive Company, priority 2021, published 2022):

Tested on: P. intermedia
Assay: Multi-species biofilm composition: absolute abundance of P. intermedia
Format: cell-based
Details: mean±SD n=3
Description: Biofilms are grown vertically on Calcium Deficient Hydroxyapatite (CAD-HA) disks (Hitemco Medical, Old Bethpage, USA) using the Amsterdam Active Adhesion model. Biofilms are allowed to establish during 24 h (37° C., 170 rpm) under micro-aerophilic conditions (6% O2, 7% CO2, 7% H2, 80% N2). After this 24 h, disks are rinsed 3 times a day for 3 minutes (RT, 250 rpm), for 3 consecutive days, by transferring the lid containing the disks to a new 24-well plate containing 2 mL/well of the appropriate substrate solution. As a negative control, PBS (pH 5.7) without substrate supplementation is used. After each rinsing step, disks are shortly dip-rinsed in a new 24-well plate containing fresh modified BHI medium (2 mL/well) to remove remaining substrate traces. Subsequently, the lid is transferred to another 24-well plate containing fresh modified BHI medium (2 mL/well), followed by incubation (micro-aerophilic, 37° C., 170 rpm) until the next rinsing step.
NADM, N-acetyl-D-glucosamine (“NADG”) and D-(+)-mannose are selected to determine their effects on multi-species biofilm composition. Repeated rinsing of the biofilms with the substrates at a concentration of 1M results in a significant decrease in absolute numbers in at least four of the pathogenic bacterial species tested in the assay, compared to the control, the results of which are described in Table 1 below. Absolute abundances of bacterial species are shown as mean±SD (n=3) logarithmic values of the genome equivalents per millilitre (log(Geq/mL)).

Row | SMILES | Absolute abundance Pi (P. intermedia) (substrate 1%(w/v) in PBS) | Absolute abundance Pi (P. intermedia) (substrate 1 M in PBS)
1 | O=C[C@@H](O)[C@@H](O)[C@H](O)[C@H](O)CO [D-mannose, D-(+)-mannose] | 8.06 ± 0.19 log(Geq/mL) | 7.80 ± 0.57 log(Geq/mL)
2 | CC(=O)N[C@@H]1C(O)O[C@H](CO)[C@@H](O)[C@@H]1O (stereo partly drawn) [NADM, N-acetyl-D-mannosamine] | 7.48 ± 0.40 log(Geq/mL) | 9.07 ± 0.06 log(Geq/mL)
3 | CC(=O)N[C@H]1C(O)O[C@H](CO)[C@@H](O)[C@@H]1O (stereo partly drawn) [NADG, N-acetyl-D-glucosamine, reference compound] | 8.17 ± 0.22 log(Geq/mL) | 6.93 ± 0.62 log(Geq/mL)
